Non-standard residues stand in square brackets, D forms with d. No end group written: not given here.
Columns and labels:
[1] = tested on: Caspase 3/7 in C2C12 cells; assay: Caspase 3/7 Activity in C2C12 Cells; format: cell-based, mouse; settings: peptides 10 μM, 24 hours, relative to 0.1% DMSO control
Description: The effect of the peptides on cell death/survival can be assessed using a caspase-3/7 assay in cultured cells such as mouse myoblast cells. Peptides were initially prepared as 10 mM stock in DMSO, diluted to 1 mM in H2O, and used at a final concentration of 10 μM (0.1% DMSO). […] Staurosporine (Abcam, Cambridge, Mass.) was dissolved at 10 mM in DMSO as a stock solution. Caspase-Glo 3/7 Assay Reagent was purchased from Promega (Madison, Wis.). C2C12 cell line was purchased from American Type Culture Collection (Manassas, Va.). C2C12 cells were grown in DMEM supplemented with 20% FBS with 100 IU/ml penicillin and 100 μg/ml streptomycin. Cultures were maintained at 37° C. in a humidified atmosphere of 5% CO2/95% air. C2C12 cells were seeded at 4,000 cells per well on 96-well plates. The next day cells were incubated with test peptides at 10 μM or staurosporine at concentrations between 100 nM and 5 nM using a final concentration of 0.1% DMSO and maintained at 37° C. in a humidified atmosphere of 5% CO2/95% air for 24 hours. Caspase 3/7 activity was determined using a Caspase-Glo 3/7 Assay kit according to the manufacturer's instructions. Luminescence for each sample well on the plate was measured using a Cytation 3 plate reader (BioTek, Winooski, Vt.). Activity was calculated relative to 0.1% DMSO control.

[2] = tested on: 3T3-L1 mouse adipocytes; assay: Free Fatty Acid Levels in 3T3-L1 Mouse Adipocytes (Example 12, 10 μM); format: cell-based; settings: peptides 10 μM, 20-22 hours then 3 hours with isoproterenol 1 nM, 3T3-L1 mouse adipocytes
Description: The effect of the peptides on fatty acid metabolism can be assessed using an assay of free fatty acid levels in cultured cells such as mouse adipocytes. Peptides were initially prepared as 10 mM stock in DMSO, diluted to 1 mM in H2O, and used at a final concentration of 10 μM (0.1% DMSO). […] After 20-22 hours, 1 nM isoproterenol was added to all wells except untreated controls and test peptides were replenished. Insulin at 100 nM was added to control wells. […] Free fatty acid concentrations in the media were determined using a Free Fatty Acid Assay kit (Zen-Bio) according to the manufacturer's instructions using a Cytation 3 plate reader at 540 nm (BioTek, Winooski, Vt.). Absorbance values were corrected for untreated background and expressed relative to isoproterenol treated cells. Treatment with isoproterenol (1 nM) alone was used as the free fatty acid level stimulatory control. The relative standard deviation of the isoproterenol control was <10%. […] Free fatty acid levels for insulin (100 nM) treatment were <5% of the isoproterenol control value.

[3] = tested on: C2C12 cells; assay: ATP Levels in Cultured C2C12 Cells (CellTiter-Glo); format: cell-based, mouse; settings: peptides 10 μM, 3 days with readdition every 24 hours, relative to 0.1% DMSO control
Description: The effect of the peptides on cellular metabolism can be assessed using an assay of ATP levels in cultured cells such as mouse myoblast cells. Peptides were initially prepared as 10 mM stock in DMSO, diluted to 1 mM in H2O, and used at a final concentration of 10 μM (0.1% DMSO). […] Lovastatin was prepared as 10 mM stock in 70% Ethanol and used at final concentration of 10 µM containing 0.1% DMSO. CellTiter-Glo® Assay kit was purchased from Promega (Madison, Wis.). […] C2C12 cells were grown in DMEM medium supplemented with 20% FBS with 100 IU/ml penicillin and 100 μg/ml streptomycin. […] C2C12 cells were seeded at 800 cells per well on 96-well plates. […] ATP levels were determined using a CellTiter-Glo Assay kit according to the manufacturer's instructions. Luminescence for each sample well on the plate was measured using a Cytation 3 plate reader (BioTek, Winooski, Vt.). Activity was calculated relative to 0.1% DMSO treated control. The relative standard deviation of the result for the 0.1% DMSO treated control was <5%. […] ATP levels for treatment with lovastatin (10 μM) were <50% of the 0.1% DMSO treated control value.

[4] = tested on: C2C12 cells; assay: Cell Proliferation in C2C12 Cells (Cyquant DNA dye); format: cell-based, mouse; settings: peptides 10 μM, 72 hours with readdition every 24 hours, relative to 0.1% DMSO control
Description: The effect of the peptides on cell proliferation was assessed using a DNA dye binding assay in cultured cells such as mouse myoblast cells. Peptides were initially prepared as 10 mM stock in DMSO, diluted to 1 mM in H2O, and added at a final concentration of 10 μM (0.1% DMSO). Lovastatin was used as a growth arrest control at final concentration of […]. […] C2C12 cells were grown in DMEM supplemented with 20% FBS with 100 IU/ml penicillin and 100 μg/ml streptomycin. […] C2C12 cells were seeded at 800 cells per well on 96-well plates. […] Cell proliferation was determined using Cyquant Direct Nucleic Acid Stain (Thermo Fisher Scientific, Waltham, Mass.) according to the manufacturer's instructions. Fluorescence for each sample well on the plate was measured using a Cytation 3 plate reader at Ex/Em=495/535 nm (BioTek, Winooski, Vt.). Activity was calculated relative to 0.1% DMSO untreated control. The relative standard deviation for the lovastatin control was <27%. The cell proliferation for the lovastatin control was <25% of the value for untreated control.

[5] = tested on: C2C12 cells; assay: Cellular ROS Levels Induced by TBHP in C2C12 Cells (DCFDA); format: cell-based, mouse; settings: peptides 10 μM, 18-20 hours, then TBHP 100 μM 1 hour, relative to TBHP control
Description: The protective or synergistic effect of the peptides on cellular levels of reactive oxygen species (ROS) induced by oxidative stress can be assessed using an assay of ROS in cultured cells such as mouse myoblasts exposed to a suitable oxidative stress. Peptides were initially prepared as 10 mM stock in DMSO, diluted to 1 mM in H2O, and added at a final concentration of 10 μM (0.1% DMSO). […] TBHP was used at final concentration of 100 μM. Sulforaphane at final concentration of 10 µM was used as a protective control against TBHP induced ROS production. […] C2C12 cells were grown in DMEM supplemented with 20% FBS with 100 IU/ml penicillin and 100 μg/ml streptomycin. […] C2C12 cells were seeded at 7,500 cells per well on 96-well plates. […] After 18-20 hours of incubation the cells were loaded with DCFDA for 45 min. TBHP at 100 μM was then added to the appropriate wells for 1 hour. ROS activity was determined using a DCFDA Cellular ROS Detection Assay kit (Abcam, Cambridge, Mass.) according to the manufacturer's instructions. Fluorescence in each sample well on the plate was measured using a Cytation 3 plate reader at Ex/Em=485/535 nm (BioTek, Winooski, Vt.). Activity was calculated relative to TBHP control. The relative standard deviation of the sulforaphane control was <20%. The ROS level produced by the sulforaphane control in the presence of TBHP was 52% of the TBHP control.

[6] = tested on: DIO mice; assay: Metabolic parameters in DIO mice, twice daily intraperitoneal, 10 days (Example 16); format: in vivo, mouse; settings: 5 mg/kg, male DIO mice
Description: Male C57BL/6 mice were maintained on a high fat diet for 18 weeks to develop diet induced obesity. Animals were randomized to treatment groups based on blood glucose levels and body weight. The peptides of the invention were administered to groups of male DIO mice twice daily by intraperitoneal injection at a dose of 5 mg/kg/dose for 10 days (N=8 animals per treatment group). An additional group of male DIO mice (n=8) received vehicle (water) alone administered twice daily by intraperitoneal injection. Body weight, blood glucose levels and food intake were monitored. Body mass distribution (fat vs lean) was determined by quantitative whole body NMR prior to dosing and at the end of dosing.

Substance	Caspase 3/7 activity, Percent of Control Activity [1] [%]	Free fatty acid levels, Percent of Isoproterenol Control Activity [2] [%]	ATP levels, Percent of Control Activity [3] [%]	Cell proliferation, Percent of Control [4] [%]	Cellular ROS levels induced by TBHP, Percent of Control [5] [%]	Difference from Vehicle Control: Decrease from Baseline in Blood Glucose [6] [mg/dL]	Difference from Vehicle Control: Decrease from Baseline in Body Weight [6] [%]	Difference from Vehicle Control: Decrease from Baseline in Fat Mass [6] [g]
11 (RLPGSAILTNPVL[dA]WVWV) [compound 11]	98.7	47.2	100.7	98.1	103.5	4.76	−1.81	-1.09
15 (LPGS[dA]ILTNPVLGWVWV) [compound 15]	105.6	92.8	101.6	115.1	101.5			
16 (PGS[dA]ILTNPVLGWVWV) [compound 16]	99.7	97.2	102.7	100.3	106.0			
17 (GS[dA]ILTNPVLGWVWV) [compound 17]	97.1	88.5	103.8	110.0	100.8			
18 (S[dA]ILTNPVLGWVWV) [compound 18]	97.0	95.9	103.2	101.7	100.7			

Source: patent US20220324912A1, “THERAPEUTIC PEPTIDES” (COHBAR, INC., priority 2019, published 2022)
